From US20090023186A1, “USE OF VALPROIC ACID FOR ENHANCING PRODUCTION OF RECOMBINANT PROTEINS IN MAMMALIAN CELLS” (EXCELLGENE SA, priority 2007, published 2009)

Legend:
[1] = test system: HEK293E cells; assay: Stable cell lines, IgG batch titer by ELISA (Example 5); type: cell-based, Human; details: 4 mmol/l final VPA; stable mass culture; 5 days after VPA addition
Experimental: 20 million suspension-adapted HEK293E cells were resuspended in 1 ml of Ex-Cell 293 HEK 293 serum-free medium with 4 mmol/l L-glutamine (Cat. No. 14571C-1000M; Lot No. 6A0093; SAFC Biosciences, Lenexa, Kans., USA, “Ex-Cell” medium; note: “Ex-Cell” medium-as used herein-refers to a medium comprising 4 mmol/l L-glutamine) in a 50-ml filter tube each (TPP AG, Trasadingen, Switzerland; Cat. No. 87050, Lot 20050174). Then 50 μg plasmid DNA at a concentration of 1 μg/μl was added in each tube with the following composition 5% (2.5 μg) p-LC (SEQ ID NO: 1) 5% (2.5 μg) p-HC (SEQ ID NO: 3) 90% (45 μg) p-puro (SEQ ID NO: 13). Plasmid p-LC comprises the genetic information for the production of the light chain of an IgG antibody, plasmid p-HC comprises the genetic information for the production of the heavy chain of an IgG antibody, plasmid p-puro comprises the genetic information for the enzyme puromycin-N-acetyl-transferase, which is encoded by the pac gene, the puromycin resistance gene. […] In short, Goat anti-human kappa light chain IgG (Biosource) was used for coating the ELISA-plates, and with AP-conjugated goat anti-human gamma chain IgG (Biosource) the synthesized IgG1 was detected. […] Absorption was measured at 405 nm against 490 nm using a microplate reader (SPECTRAmaxTM340; Molecular Devices, Palo Alto, Calif., USA).

[2] = test system: HEK293E cells; assay: Influence of temperature on IgG batch titer and comparison with sodium butyrate (Example 2); type: cell-based, Human; details: day 5 after transfection
Experimental: No. 14571C-[…]; Lot No. 6A0093; SAFC Biosciences, Lenexa, Kans., USA, “Ex-Cell” medium; note: “Ex-Cell” medium-as used herein-refers to a medium comprising 4 mmol/l L-glutamine) in a 50-ml filter tube each (TPP AG, Trasadingen, Switzerland; Cat. No. 87050, Lot 20050174). In a separate set, 10 million suspension-adapted CHO DG44 cells were resuspended in 0.5 ml of ProCHO5 serum-free medium with 4 mmol/[…] hypoxanthine and 0.194 g/l thymidine (BioWhittaker (Lonza), Belgium; Cat. No. BE12-[…]; Lot No. 7 MB0040; “ProCHO5” medium; note: “ProCHO5” medium-as used herein-refers to a medium comprising 4 mmol/[…] hypoxanthine and 0.194 g/l thymidine) in a 50-ml filter tube each (TPP AG, Trasadingen, Switzerland; Cat. No. 87050, Lot 20050174). Then 12.5 μg plasmid DNA at a concentration of 1 μg/μl was added in each tube with the following composition 50% (6.25 μg) p-LC (SEQ ID NO: 1) 50% (6.25 μg) p-HC (SEQ ID NO: 3). Plasmid p-LC comprises the genetic information for the production of the light chain of an IgG antibody, plasmid p-HC comprises the genetic information for the production of the heavy chain of an IgG antibody. The particular vector constructs used in the present invention can also be obtained from the inventors. The inventors can be contacted via e-mail at […]. Moreover, commercial services do exist that produce any desired nucleotide sequence even comprising several kilobase pairs including complete expression cassettes in plasmid backgrounds (e.g., Invitrogen, Carlsbad, USA; Geneart, Germany.) Thus, providing the genetic sequence information of the plasmids should enable one of ordinary skill in the art to order the plasmids of the present invention at one of the commercial services listed. After shortly mixing the DNA with the cells by gentle shaking, 25 μg of 25-kd linear polyethyleneimine (“PEI”; Polysciences, Eppelheim, Germany; [2]) were added at a concentration of 1 μg/μl to each of the tubes. After shortly mixing by gentle shaking, the filter tubes containing the cells together with the DNA and PEI were transferred into an orbital shaker (Kühner Shaker Cabinet ISF-4-W, “Kühner shaker”, Kühner AG, Birsfelden, Switzerland), and the cells were incubated for 4 hours at 37° C. in a 5% CO2 atmosphere under shaking at 180 rpm. After that time, 4.5 ml of Ex-Cell medium were added to each of the filter tubes containing HEK 293 cells and 4.5 ml of Pro-CHO5 were added to each of the filter tubes containing CHO DG44 cells. […] No. […] Sigma-Aldrich Chemie GmbH, Industriestrasse 25, CH-9471 Buchs SG) was added to the corresponding tubes at the corresponding final concentrations. The cells then were returned into the Kühner shaker. Half the tubes were incubated at 37° C. in a 5% CO2 atmosphere under shaking at 180 rpm, the other half was incubated at 31° C. […] The ELISA was performed as published in prior art. In short, Goat anti-human kappa light chain IgG (Biosource) was used for coating the ELISA-plates, and with AP-conjugated goat anti-human gamma chain IgG (Biosource) the synthesized IgG1 was detected. NPP was used as a substrate for the alkaline phosphatase. Absorption was measured at 405 nm against 490 nm using a microplate reader (SPECTRAmaxTM340; Molecular Devices, Palo Alto, Calif., USA).

[3] = 3.8 mmol/l VPA, relative to control = 1

SMILES: CCCC(CCC)C(=O)O [VPA, valproic acid]
- Batch titer HEK293E [1]: 47.8 ± 4.8 mg/L
- Batch titer increase at 31° C. [2, 3]: 5.3 ± 0.4
- Batch titer increase at 37° C. [2, 3]: 5.3 ± 0.5
- performance compared with sodium butyrate (batch titer increase) ([2]; 31° C. and 37° C.): slightly better performance than sodium butyrate
